Test results reported in patent US8501794B2, “Compounds as cannabinoid receptor ligands” (priority 2007, dated 2013).
Where two headings read alike, the source gives them in different places.

Tests used:
human CB2 receptors = target: T1, human CB2 receptors (Homo sapiens, UniProt P34972); assay: human CB2 radioligand binding assay ([3H]CP-55,940 competition)
T1 construct: expressed in transfected cells; host or cells: HEK293

rat CB2 [1] = target: T2, rat CB2 (Rattus norvegicus, UniProt Q9QZN9); assay: rat CB2 cyclase functional assay (HitHunter cAMP, HEK cells); assay type: cell-based; design: expressed in transfected cells; host or cells: HEK; conditions: forskolin 18 μM
T2 sequence (Q9QZN9 1-360): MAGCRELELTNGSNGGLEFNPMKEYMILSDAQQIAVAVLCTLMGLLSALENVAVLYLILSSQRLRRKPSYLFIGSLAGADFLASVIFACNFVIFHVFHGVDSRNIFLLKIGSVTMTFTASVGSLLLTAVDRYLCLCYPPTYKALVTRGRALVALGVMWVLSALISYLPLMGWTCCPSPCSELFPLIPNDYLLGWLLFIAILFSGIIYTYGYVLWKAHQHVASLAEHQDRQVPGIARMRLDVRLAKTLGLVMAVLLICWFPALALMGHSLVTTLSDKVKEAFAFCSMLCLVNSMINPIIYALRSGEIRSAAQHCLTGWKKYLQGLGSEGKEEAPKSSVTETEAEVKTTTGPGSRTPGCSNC

rat CB2 [2] = target: T2, rat CB2; assay: rat CB2 radioligand binding assay ([3H]CP-55,940 competition); design: expressed in transfected cells; host or cells: HEK293
[3] = HEK293 membranes, 0.5 nM [3H]CP-55,940, read-out: human CB2 (Ki)
[4] = HEK293 membranes, 0.5 nM [3H]CP-55,940, read-out: rat CB2 (Ki)

T1 sequence (P34972 whole entry): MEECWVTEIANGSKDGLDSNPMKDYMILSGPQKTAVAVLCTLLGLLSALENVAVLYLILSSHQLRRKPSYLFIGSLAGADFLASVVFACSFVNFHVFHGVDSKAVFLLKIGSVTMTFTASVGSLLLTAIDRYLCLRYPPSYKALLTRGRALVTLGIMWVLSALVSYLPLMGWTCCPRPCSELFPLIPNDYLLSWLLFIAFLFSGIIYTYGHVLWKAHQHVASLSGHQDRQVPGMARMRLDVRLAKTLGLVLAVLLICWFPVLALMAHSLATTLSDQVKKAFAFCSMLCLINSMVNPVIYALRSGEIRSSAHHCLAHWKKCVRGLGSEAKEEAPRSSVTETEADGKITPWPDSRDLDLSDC

Row | SMILES | Ki (human CB2 receptors) | EC50 (rat CB2 [1]) | Ki (rat CB2 [2]) | Ki (human CB2 receptors; [3]) | Ki (rat CB2 [2]; [4])
1 | COc1ccc(Cl)cc1C(=O)/N=c1\sn(C(C)(C)C)cc1C(O)C(C)C (centres unmarked) [Example 23, N-[(5Z)-2-tert-butyl-4-(1-hydroxy-2-methylpropyl)isothiazol-5(2H)-ylidene]-5-chloro-2-methoxybenzamide] | 0.014 µM | 0.00089 µM | 0.0027 µM | – | –
2 | CCCCc1cn(C(C)(C)C)s/c1=N\C(=O)[C@]1(C)CC[C@H](C(=O)NCCO)C1(C)C [Example 203, (1R,3S)—N^1-[(5Z)-4-butyl-2-tert-butylisothiazol-5(2H)-ylidene]-N^3-(2-hydroxyethyl)-1,2,2-trimethylcyclopentane-1,3-dicarboxamide] | 0.07 µM | 0.0039 µM | – | – | –
3 | CCCCc1cn(C(C)(C)C)s/c1=N\C(=O)[C@]1(C)CC[C@H](C(=O)NCC)C1(C)C [Example 201, (1R,3S)—N^1-[(5Z)-4-butyl-2-tert-butylisothiazol-5(2H)-ylidene]-N^3-ethyl-1,2,2-trimethylcyclopentane-1,3-dicarboxamide] | 0.18 µM | 0.0035 µM | – | – | –
4 | CCCCc1cn(C(C)(C)C)s/c1=N\C(=O)[C@@H]1CC[C@](C)(C(=O)OC)C1(C)C [Example 204, Methyl (1S,3R)-3-({[(5Z)-4-butyl-2-tert-butylisothiazol-5(2H)-ylidene]amino}carbonyl)-1,2,2-trimethylcyclopentanecarboxylate] | 0.0006 µM | 0.00034 µM | – | – | –
5 | COC(=O)CCCc1cn(C(C)(C)C)s/c1=N\C(=O)c1cc(C#N)ccc1OC [Example 46, Methyl 4-{(5Z)-2-tert-butyl-5-[(5-cyano-2-methoxybenzoyl)imino]-2,5-dihydroisothiazol-4-yl}butanoate] | – | 0.00056 µM | 0.017 µM | – | –
6 | CCCCc1cn(C(C)(C)C)s/c1=N\C(=O)c1cc(S(C)(=O)=O)ccc1OC [Example 48, N-[(5Z)-4-butyl-2-tert-butylisothiazol-5(2H)-ylidene]-2-methoxy-5-(methylsulfonyl)benzamide] | – | 0.00056 µM | 0.022 µM | – | –
7 | CCCCc1cn(C(C)(C)C)s/c1=N\C(=O)[C@]1(C)CC[C@H](NC(=O)c2ccccc2)C1(C)C [Example 251, N-[(1S,3R)-3-({[(5Z)-4-butyl-2-tert-butylisothiazol-5(2H)-ylidene]amino}carbonyl)-2,2,3-trimethylcyclopentyl]benzamide] | 0.06 µM | – | 0.06 µM | – | –
8 | CCCCc1cn(C(C)(C)C)s/c1=N\C(=O)c1cc(C(F)(F)F)ccc1OC[C@@H]1CCC(=O)N1 [Example 194, N-[(5Z)-4-butyl-2-tert-butylisothiazol-5(2H)-ylidene]-2-{[(2S)-5-oxopyrrolidin-2-yl]methoxy}-5-(trifluoromethyl)benz amide] | – | – | 0.041 µM | 0.17 µM | –
9 | CCCCc1cn(C(C)(C)C)s/c1=N\C(=O)[C@@]1(C)CC[C@@H](C2=NCCO2)C1(C)C [Example 231, (1S,3R)—N-[(5Z)-4-butyl-2-tert-butylisothiazol-5(2H)-ylidene]-3-(4,5-dihydro-1,3-oxazol-2-yl)-1,2,2-trimethylcyclopentanecarboxamide] | 0.051 µM | – | 0.011 µM | – | –
10 | CCCCc1cn(C(C)(C)C)s/c1=N\C(=O)c1cc(C(F)(F)F)ccc1OCC(C)(C)O [Example 262, N-[(5Z)-4-butyl-2-tert-butylisothiazol-5(2H)-ylidene]-2-(2-hydroxy-2-methylpropoxy)-5-(trifluoromethyl)benzamide] | 0.006 µM | – | 0.0044 µM | – | –
11 | CCCCc1cn(C(C)(C)C)s/c1=N\C(=O)[C@@]1(C)CC[C@@H](C(=O)NC2CCC2)C1(C)C [Example 225, (1S,3R)—N^1-[(5Z)-4-butyl-2-tert-butylisothiazol-5(2H)-ylidene]-N^3-cyclobutyl-1,2,2-trimethylcyclopentane-1,3-dicarboxamide] | – | – | – | 0.29 µM | 0.423 µM
12 | CCCCc1cn(C(C)(C)C)s/c1=N\S(=O)(=O)c1cc(Cl)ccc1OC [Example 115, N-[(5Z)-4-butyl-2-tert-butylisothiazol-5(2H)-ylidene]-5-chloro-2-methoxybenzenesulfonamide] | 0.053 µM | – | 0.033 µM | – | –
13 | CCCCc1cn(C(C)(C)C)s/c1=N\C(=O)[C@@H]1CC[C@](C)(C2=NCCO2)C1(C)C [Example 224, (1R,3S)—N-[(5Z)-4-butyl-2-tert-butylisothiazol-5(2H)-ylidene]-3-(4,5-dihydro-1,3-oxazol-2-yl)-2,2,3-trimethylcyclopentanecarboxamide] | 0.038 µM | – | 0.02 µM | – | –
14 | CCCCc1cn(C(C)(C)C)s/c1=N\C(=O)[C@]1(C)CC[C@H](NC(C)=O)C1(C)C [Example 256, (1R,3S)-3-(acetylamino)-N-[(5Z)-4-butyl-2-tert-butylisothiazol-5(2H)-ylidene]-1,2,2-trimethylcyclopentanecarboxamide] | 0.019 µM | – | 0.028 µM | – | –
15 | CCCCc1cn(C(C)(C)C)s/c1=N\C(=O)OCC(C)(C)C [Example 187, Neopentyl (5Z)-4-butyl-2-tert-butylisothiazol-5(2H)-ylidenecarbamate] | 0.038 µM | – | 0.0082 µM | – | –
16 | CCCCc1cn(C(C)(C)C)s/c1=N\C(=O)OC12CC3CC(CC(C3)C1)C2 [Example 189, 1-adamantyl (5Z)-4-butyl-2-tert-butylisothiazol-5(2H)-ylidenecarbamate] | 0.039 µM | – | 0.0053 µM | – | –
17 | CCCCc1cn(C(C)(C)C)s/c1=N\C(=O)c1cc(C(F)(F)F)ccc1OCc1cnccn1 [Example 198, N-[(5Z)-4-butyl-2-tert-butylisothiazol-5(2H)-ylidene]-2-(pyrazin-2-ylmethoxy)-5-(trifluoromethyl)benzamide] | – | – | – | 0.25 µM | 0.111 µM
18 | CCCCc1cn(C2CCC2)s/c1=N\C(=O)c1cc(Cl)ccc1OC [Example 3, N-[(5Z)-4-butyl-2-cyclobutylisothiazol-5(2H)-ylidene]-5-chloro-2-methoxybenzamide] | – | – | 0.011 µM | 0.41 µM | –
19 | COc1ccc(Cl)cc1C(=O)/N=c1\sn(C(C)(C)C)cc1C(O)c1ccccc1 (centres unmarked) [Example 31, N-[(5Z)-2-tert-butyl-4-[hydroxy(phenyl)methyl]isothiazol-5(2H)-ylidene]-5-chloro-2-methoxybenzamide] | 0.063 µM | – | 0.0058 µM | – | –
20 | CCCCc1cn(C(C)(C)C)s/c1=N\C(=O)C1(c2ccccc2)CCCC1 [Example 98, N-[(5Z)-4-butyl-2-tert-butylisothiazol-5(2H)-ylidene]-1-phenylcyclopentanecarboxamide] | 0.01 µM | – | 0.0048 µM | – | –
21 | CCCCc1cn(C(C)(C)C)s/c1=N\C(=O)c1cc(I)ccc1OC [Example 61, N-[(5Z)-4-butyl-2-tert-butylisothiazol-5(2H)-ylidene]-5-iodo-2-methoxybenzamide] | 0.0076 µM | – | 0.00051 µM | – | –
22 | CCCCc1cn(C(C)(C)C)s/c1=N\C(=O)[C@]1(C)CC[C@H](C(=O)NN2CCCC2)C1(C)C [Example 249, (1R,3S)—N^1-[(5Z)-4-butyl-2-tert-butylisothiazol-5(2H)-ylidene]-1,2,2-trimethyl-N^3-pyrrolidin-1-ylcyclopentane-1,3-dicarboxamide] | – | – | – | 0.11 µM | 0.325 µM
23 | CCCCc1cn(C(C)(C)C)s/c1=N\C(=O)[C@@H]1CC[C@](C)(C(=O)NCCC)C1(C)C [Example 211, (1S,3R)—N^3-[(5Z)-4-butyl-2-tert-butylisothiazol-5(2H)-ylidene]-1,2,2-trimethyl-N^1-propylcyclopentane-1,3-dicarboxamide] | – | – | – | 0.27 µM | 0.111 µM
24 | CCCCc1cn(C(C)(C)C)s/c1=N\C(=O)[C@]1(C)CC[C@H](NC(=O)OC)C1(C)C [Example 215, Methyl (1S,3R)-3-({[(5Z)-4-butyl-2-tert-butylisothiazol-5(2H)-ylidene]amino}carbonyl)-2,2,3-trimethylcyclopentylcarbamate] | 0.069 µM | – | 0.091 µM | – | –
25 | COc1ccc(Cl)cc1C(=O)/N=c1\sn(C(C)(C)C)c(C)c1NC(=O)OC(C)(C)C [Example 162, Tert-butyl [(5Z)-2-tert-butyl-5-{[(5-chloro-2-methoxyphenyl)carbonyl]imino}-3-methyl-2,5-dihydroisothiazol-4-yl]carbamate] | – | – | 0.047 µM | 0.12 µM | –
26 | CCCCc1cn(C(C)(C)C)s/c1=N\C(=O)[C@@H]1CC[C@](C)(C(=O)O)C1(C)C [Example 205, (1S,3R)-3-({[(5Z)-4-butyl-2-tert-butylisothiazol-5(2H)-ylidene]amino}carbonyl)-1,2,2-trimethylcyclopentanecarboxylic acid] | 0.021 µM | 0.0117 µM | – | – | –
27 | CCCCc1cn(C(C)(C)C)s/c1=N\C(=O)[C@H]1CC[C@@](C)(C2=NCCO2)C1(C)C [Example 232, (1S,3R)—N-[(5Z)-4-butyl-2-tert-butylisothiazol-5(2H)-ylidene]-3-(4,5-dihydro-1,3-oxazol-2-yl)-2,2,3-trimethylcyclopentanecarboxamide] | 0.045 µM | – | 0.018 µM | – | –
28 | COC(=O)CCCc1cn(C(C)(C)C)s/c1=N\C(=O)c1cc(Cl)ccc1OC [Example 45, Methyl 4-{(5Z)-2-tert-butyl-5-[(5-chloro-2-methoxybenzoyl)imino]-2,5-dihydroisothiazol-4-yl}butanoate] | – | – | 0.0056 µM | 0.12 µM | –
29 | CCCCc1cn(C(C)(C)C)s/c1=N\C(=O)c1cc(OC(F)(F)F)ccc1OC [Example 63, N-[(5Z)-4-butyl-2-tert-butylisothiazol-5(2H)-ylidene]-2-methoxy-5-(trifluoromethoxy)benzamide] | 0.033 µM | – | 0.0034 µM | – | –
